Patent US20140073637A1, “AMINO-SUBSTITUTED-ALKYLOXY-BENZO[E]PYRIDO[4,3-B]INDOLE DERIVATIVES AS NEW POTENT KINASE INHIBITORS” (INSTITUT CURIE, priority 2011, published 2014)
Like-named read-outs stand apart in the source and are kept apart here.

Legend:
HeLa cells = assay: Cell viability / antiproliferative assay; format: cell-based; details: HeLa cells, average of three independent experiments, concentration that induced 50% death, read-out: IC50 (in nM), antiproliferative assay
Excerpt: Antiproliferative assays with HeLa cells have been performed with the preferred compounds and compared to the C1 and C2. The average of three independent experiments is shown. IC50 obtained with C1 and C2 were previously reported in Hoang et al, 2009, and are indicated for comparison. The lateral chain of each molecule is recalled, knowing that all the molecules have an oxo group at position 11. IC50 are indicated, i.e. the concentration that induced 50% death.
H358, H322 (lung cancer cells), U373 (glioblastomes) and HeLa ([…]) were grown in DMEM (1.5 g/L glucose) whereas HL60 (human myeloid cell line) cells were in RPMI 1640. U2OS (a human osteosarcoma cell line) cells were cultured in McCoy's Medium 5 A and liver cells (SK Hep 1) in DMEM (4 g/L glucose, (Gibco-Invitrogen). Media (Gibco-Invitrogen), were supplemented with 10% heat-inactivated foetal bovine serum (Gibco-Invitrogen), L-glutamine (2 mM), penicillin (100 UI/ml) and streptomycin (100 μg/ml).
Cell proliferation assays were conducted in 96 well culture plates. Assays were run in triplicate. Cell viability was estimated upon 72 h of treatment with varying concentrations of compound by addition of CellTiter 96Queous one Solution Reagent (Promega) directly to culture wells under conditions defined by the manufacturer.

Aurora B = Aurora B (Homo sapiens, UniProt Q96GD4); assay: Aurora B inhibition in cells: Histone H3 Ser10 phosphorylation by western blotting and immunofluorescence; format: cell-based; set-up: endogenous in cells; host or cells: U2OS (human osteosarcoma); HeLa also used for the maleate salts; key to Aurora B inhibition: +++: very efficient inhibition; −: no inhibition; details: for Aurora B kinase inhibition of maleate salts (in words): U2OS and HeLa cells, 1 μM overnight with Nocodazole, immunoblotting (FIG. 11); for Aurora B inhibition: cells, Histone H3 Ser10 phosphorylation, western blotting and immunofluorescence, compounds 1 μM
Procedure: Actin is used as control of quantity. Cells were incubated overnight in the presence of either C1, or C2 or CH21 or C14 or DMSO(C: control). All compounds were tested at 1 μM. Proteins were detected by western blotting.
Cells were incubated with the different molecules and Aurora B inhibition is estimated by western blotting (WB) and immuno fluorescent experiments. Histone H3 phosphorylated on Ser10 is used as a marker of Aurora B kinase activity and actin as an internal control. Each WB signal is compared to the control in the absence of compound. The efficiency estimated by WB is indicated by +++: very efficient inhibition to −: no inhibition. Immunofluorescent labelling of a mitotic cell by Histone H3 illustrates Aurora B kinase activity. However immunofluorescence is less sensitive than WB. Active molecules are underlined by a square and the intensity of the line indicates the efficiency of inhibition.
FIG. 10A: Immunofluorescence with phospho-Ser10-Histone H3 antibodies. Either the percentage of positive phospho-Ser10-Histone H3 is indicated or a representative mitosis shown. […] Immunofluorescent assays were realized with a specific phospho-antibody and mitotic U2OS cells are recognized by their DNA content stained with Hoechst. On the right, a representative cell or the percentage of H3-S10-P labelled mitosis.
FIG. 10B: Immunoblotting analysis of histone H3 phosphorylation. U2OS cells were incubated overnight with Nocodazole (50 nM) in the presence of either DMSO (Co) or Compounds (1 μM). Cells were then collected and lyzed. Identical amounts of the lyzed cell samples were run on 18% acrylamide gel containing SDS.
FIGS. 11B and 11C: Immunoblotting analysis of histone H3 phosphorylation. U2OS and HeLa cells were incubated overnight with Nocodazole (50 nM) in the presence of either DMSO (Co) or Compounds (1 μM). Cells were then collected and lyzed. Identical amounts of the lyzed cell samples were run on 18% acrylamide gel containing SDS.
Cells were incubated with the different molecules and Aurora B inhibition is estimated by western blotting and immunofluorescent experiments. Histone H3 phosphorylated on Ser10 is used as a marker of Aurora B kinase activity and actin as an internal control. Results are represented in FIGS. 4 and 10 and Table 3.
(§1) Cells were treated by compounds, harvested and lyzed in 9M urea then supplemented with Laemmli sample buffer. Cell extracts were subjected to SDS-PAGE and transferred to nitrocellulose filter (GE Healthcare). After blocking with 5% non-fat milk in PBS for at least 1 hour, the membranes were incubated with the primary antibodies. The following antibodies were used: phospho-Histone H3 Ser10 (1:2000, Upstate Biotechnology), anti LAST1 (Cell signalling), anti Aurora B (epitomics) and anti alpha-tubulin (Sigma) Anti-rabbit horseradish peroxidase (1:5000, GE Healthcare) was used as secondary antibodies. Bands were visualized by ECL technique (Amersham Bioscience).
Cells were seeded on glass coverslips and treated by compounds (1 μM) overnight. After treatment, cells were fixed in 4% formaldhehyde at 37° C. for 15 minutes, then permeabilized for 5 minutes with Triton X-100 in PBS.

NUAK1 [1] = target: T1, NUAK1 (Homo sapiens, UniProt O60285); assay: In vitro IC50 on recombinant kinase; format: biochemical
T1 construct: Reaction biology Corp (USA), service
T1 sequence (O60285 1-661): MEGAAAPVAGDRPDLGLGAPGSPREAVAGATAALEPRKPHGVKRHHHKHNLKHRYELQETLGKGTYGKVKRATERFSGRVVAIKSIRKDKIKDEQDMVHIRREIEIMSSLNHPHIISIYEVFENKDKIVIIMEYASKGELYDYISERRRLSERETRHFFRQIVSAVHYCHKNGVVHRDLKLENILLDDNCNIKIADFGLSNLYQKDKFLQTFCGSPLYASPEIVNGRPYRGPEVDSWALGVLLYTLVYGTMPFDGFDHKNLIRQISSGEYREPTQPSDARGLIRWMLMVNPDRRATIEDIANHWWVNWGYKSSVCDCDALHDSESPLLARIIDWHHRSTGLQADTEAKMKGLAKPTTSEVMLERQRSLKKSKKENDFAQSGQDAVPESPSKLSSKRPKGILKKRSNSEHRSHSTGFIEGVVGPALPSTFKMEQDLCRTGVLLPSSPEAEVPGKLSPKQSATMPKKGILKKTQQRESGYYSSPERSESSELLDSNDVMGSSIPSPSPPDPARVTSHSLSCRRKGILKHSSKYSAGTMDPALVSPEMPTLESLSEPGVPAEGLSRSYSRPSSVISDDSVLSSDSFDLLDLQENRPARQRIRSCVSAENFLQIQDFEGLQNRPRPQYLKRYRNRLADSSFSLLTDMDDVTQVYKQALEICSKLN
Procedure: The efficiency of the 3-amino-ethoxy compounds to inhibit Nuak1 was determined in vitro.
The profiling was performed at the MRC (Dundee University), in duplicate, on a set of 121 kinases. The panel is representative of the major different classes of kinases. Compounds were used at the concentration of 1 μM. In vitro, IC50 were determined on recombinant kinases by Reaction biology Corp (USA).

NUAK1 [2] = target: T1, NUAK1; assay: Nuak1 inhibition in cellulo: LATS1 stabilization by western blot; format: cell-based; details: HeLa cells treated ON; whole cell extracts, WB, compared to control
Procedure: HeLa cells were treated ON by C21 (also named CH21) and C14M and compared to the control (C0). Whole cell extracts were analyzed by WB with anti LATS1 monoclonal antibody and the loading was quantified through the tubulin signal.
Therefore the possibility of inhibiting Nuakl, in cellulo, was evaluated through the stabilization of the Large Antigen Tumour Suppressor LATS1.
as §1

Sequence of Aurora B (Q96GD4 whole entry): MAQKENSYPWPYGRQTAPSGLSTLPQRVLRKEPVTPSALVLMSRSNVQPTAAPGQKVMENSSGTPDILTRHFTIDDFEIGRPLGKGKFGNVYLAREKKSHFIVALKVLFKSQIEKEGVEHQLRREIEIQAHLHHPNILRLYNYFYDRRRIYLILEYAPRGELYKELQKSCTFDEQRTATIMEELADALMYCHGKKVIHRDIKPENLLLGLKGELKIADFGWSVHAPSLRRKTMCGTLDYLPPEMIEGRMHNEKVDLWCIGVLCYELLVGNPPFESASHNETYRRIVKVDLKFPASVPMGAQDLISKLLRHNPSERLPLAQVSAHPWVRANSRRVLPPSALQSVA

| SMILES | Aurora B inhibition (Aurora B) | other results |
| --- | --- | --- |
| Cc1c[nH]c(=O)c2c1[nH]c1ccc3cc(OCCN4CCOCC4)ccc3c12 [Compound C07M, 3-(2-(Morpholin-4-yl)ethoxy)-8-methyl-7H,10H-benzo[e]pyrido(4,3-b)indol-11-one] |  | IC50 (HeLa cells): 287 ± 32 nM; Aurora B kinase inhibition of maleate salts (in words) (Aurora B): maintained |
| CCc1c[nH]c(=O)c2c1[nH]c1ccc3cc(OCCN(C)C)ccc3c12 [Compound C48M, 3-(2-N,N-dimethylaminoethoxy)-8-ethyl-7H,11H-benzo[e]pyrido(4,3-b)indol-11-one] |  | IC50 (HeLa cells): 63 ± 17 nM; Aurora B kinase inhibition of maleate salts (in words) (Aurora B): maintained |
| CCc1cnc(Cl)c2c1[nH]c1ccc3cc(OCCN(C)C)ccc3c12 [Compound C40, 11-Chloro-3-(2-N,N-dimethylaminoethoxy)-8-ethyl-7H-benzo[e]pyrido(4,3-b)indole] | − |  |
| Cc1cnc(Cl)c2c1[nH]c1ccc3cc(OCCN4CCCCC4)ccc3c12 [Compound C709, 11-Chloro-3-(2-(piperidin-1-yl)ethoxy)-8-methyl-7H-benzo[e]pyrido(4,3-b)indole] | − |  |
| Cc1cnc(Cl)c2c1[nH]c1ccc3cc(OCCN4CCOCC4)ccc3c12 [Compound C05, 11-Chloro-3-(2-(morpholin-4-yl)ethoxy)-8-methyl-7H-benzo[e]pyrido(4,3-b)indole] | − |  |
| Cc1c[nH]c(=O)c2c1[nH]c1ccc3cc(OCCN4CCCCC4)ccc3c12 [Compound C710, 3-(2-(Piperidin-1-yl)ethoxy)-8-methyl-7H,10H-benzo[e]pyrido(4,3-b)indol-11-one] | +++ |  |
| CCc1c[nH]c(=O)c2c1[nH]c1ccc3cc(OCCN(C)C)ccc3c12 [Compound C48, 3-(2-N,N-dimethylaminoethoxy)-8-ethyl-7H,11H-benzo[e]pyrido(4,3-b)indol-11-one] | +++ | IC50 (HeLa cells; Homo sapiens, HeLa): 53 ± 3 nM; IC50 (NUAK1 [1]): 0.0057 µM |
| Cc1cncc2c1[nH]c1ccc3cc(OCCCN(C)C)ccc3c12 [Compound C23, 3-(3-N,N-dimethylaminopropoxy)-8-methyl-7H-benzo[e]pyrido(4,3-b)indole] | − |  |
| Cc1c[nH]c(=O)c2c1[nH]c1ccc3cc(OCCN(C)C)ccc3c12 [Compound C14M, 3-(2-N,N-Dimethylaminoethoxy)-8-methyl-7H,10H-benzo[e]pyrido(4,3-b)indol-11-one] |  | IC50 (HeLa cells): 114 ± 82 nM; LATS1 protein level (in words) (NUAK1 [2]): large increase; Aurora B kinase inhibition of maleate salts (in words) (Aurora B): maintained |
| COc1ccc2c(c1)CCc1[nH]c3c(C)c[nH]c(=O)c3c1-2 [Compound C11, reference compound] | − |  |
| Cc1c[nH]c(=O)c2c1[nH]c1ccc3cc(OCCN4CCOCC4)ccc3c12 [Compound C07, 3-(2-(Morpholin-4-yl)ethoxy)-8-methyl-7H,10H-benzo[e]pyrido(4,3-b)indol-11-one] | +++ | IC50 (HeLa cells): 107 ± 12 nM; IC50 (NUAK1 [1]): 0.0016 µM |
| COc1ncc(C)c2[nH]c3ccc4cc(OCCN(C)C)ccc4c3c12 [Compound C12, 11-Methoxy-3-(2-N,N-dimethylaminoethoxy)-8-methyl-7H-benzo[e]pyrido(4,3-b)indole] | − |  |
| COCCOc1ccc2c(ccc3[nH]c4c(C)cnc(Cl)c4c32)c1 [Compound C708, 11-Chloro-3-(2-methoxyethoxy)-8-methyl-7H-benzo[e]pyrido(4,3-b)indole] | − |  |
| COCCOc1ccc2c(ccc3[nH]c4c(C)c[nH]c(=O)c4c32)c1 [Compound C711, 3-(2-Methoxyethoxy)-8-methyl-7H,10H-benzo[e]pyrido(4,3-b)indol-11-one] | − |  |
